Laboratory results reported in patent US8664409B2, “Process for the preparation of (poly) aminoalkylaminoacetamide derivatives of epipodophyllotoxin useful for their applications in therapeutics as anticancer agent” (Pierre Fabre Medicament, priority 2007, dated 2014).
Counter-ions that a name gives are not always drawn.

SMILES: COc1cc(C2c3cc4c(cc3[C@@H](NC(=O)CNCCCCNCCCCNCCCCN)[C@H]3COC(=O)C23)OCO4)cc(OC)c1O (some centres unmarked) (as salt: hydrochloride)
- melting point: 263 °C

SMILES: COc1cc(C2c3cc4c(cc3[C@@H](NC(=O)CNCCCCNCCCN)[C@H]3COC(=O)C23)OCO4)cc(OC)c1O (some centres unmarked) (as salt: hydrochloride)
- melting point: 197 °C
